We go through 1 compound from patent publication US12564596B2, “Agents and methods for modulating pathogen activity” (Griffith University, priority 2018, dated 2026).

The target of assay [1] is T1, N. gonorrhoeae MS11 pilin interaction with human rI-domain (Homo sapiens, UniProt P11215).
T1 construct: was performed with human rI-domain immobilized on a CM5 sensor chip surface; made in house
The assay can be described thus: SPR 1:1 competition assay, MS11 pilin binding to rI-domain. As to the method:
To determine if drugs with high affinity interactions with the human rI-domain could inhibit the interaction with MS11 pilin or HIV, competition assay between primary T-cell derived WITO HIV and N. gonorrhoeae MS11 pilin and the drugs were performed as described Mubaiwa et al (2017, Sci Rep. 7(1):5693). Competition analysis SPR of N. gonorrhoeae MS11 pilin and human rI-domain interaction was performed with human rI-domain immobilized on a CM5 sensor chip surface (low immobilization—˜3500 RU compared to ˜14000 RU for initial screening and KD calculations). N. gonorrhoeae MS11 purified pilin, drug or drug and pilin were flowed at 100 nM over the I-domain and the response units of the interactions were recorded.

Assay [2] deals with N. gonorrhoeae strain MS11gfp adherence to CHO-CR3 cells. Nature of the assay: Fluorometric adherence assay, gonococci to CHO cells. Particulars: 1 h post-challenge. Format: cell-based, Neisseria gonorrhoeae. How it is done:
The ability of carbamazepine to block adherence of N. gonorrhoeae strain MS11gfp to CHO-neo or CHO-CR3 cells was evaluated using a fluorometric adherence assay. Assays were performed essentially as described by Jen et al (2013, PLoS Pathog. 9(5):e1003377). In this regard, CHO-neo or CHO-CR3 cells were seeded to a 96-well plate and allowed to grow to confluence. MS11gfp gonococci were then used to challenge (1 h) CHO cells simultaneously with, or without, various concentrations of carbamazepine (as noted). Fluorescence (485/528 nm) intensity, corresponding to bacterial adherence, was recorded using a Synergy HT Multi-mode Microplate Reader (BioTek Instruments, Winooski, VT USA). The assay was performed in triplicate on 3 separate occasions. A Kruskal-Wallis k-sample analysis of variance was used to determine the statistical significance of the calculated mean of bacterial adherence.
The ability of the compounds, or negative controls to block adherence of N. gonorrhoeae strain MS11gfp to PEX cells, CHO-CR3, or CHO-neo cells was evaluated using a fluorometric microtiter plate assay. Assays were performed essentially as described by Jen et al. (2013, Plos Pathog 9(5): e1003377). In this regard, GFP-expressing gonococci were used to challenge (1 h) PEX or CHO cells immediately following compound addition. Fluorescence (485/528 nm) intensity, corresponding to bacterial adherence, was recorded using a Synergy HT Multi-mode Microplate Reader (BioTek Instruments, Winooski, VT USA). Blank wells, devoid of PEX or CHO cells, also were inoculated with bacteria and served as a control for non-specific binding. The assay was performed in triplicate on 3 separate occasions. A Student's t-test was used to determine the statistical significance of the calculated mean of bacterial adherence.

Assay [3] has as its system N. gonorrhoeae in infected PEX cells. The assay can be described thus: Survival assay of N. gonorrhoeae in infected PEX cells. Format: cell-based, Neisseria gonorrhoeae. An excerpt: N. gonorrhoeae strains used in survival assays included MS11 Schoolnik et al (1984, supra), Segal et al (1985, supra) and 1291 Apicella et al (1974, J. Infect Dis. 130(6):619-25), Dudas and Apicella (1988, Infect Immun. 56(2):499-504), which are commonly used to study gonococcal pathogenesis. Also examined were a panel of low-passage clinical isolates (FIG. 14; i.e., N. gonorrhoeae strains LT38097, UT38885, PID-26, and SK92-679). Strains 1291 and LT38097 are male urethral isolates; strains MS11 and UT38885 were obtained from women with uncomplicated gonococcal cervicitis, strain PID-26 was obtained from a patient with pelvic inflammatory disease; and strain SK92-679 is a blood isolate from a patient with disseminated infection. Antibiotic-resistant N. gonorrhoeae strains tested were obtained from Public Health England and comprised WHO-L, WHO-M, WHO-X (H041), WHO-Y (F89), and WHO-Z (A8806), see FIG. 15. For use, bacteria were harvested from overnight (37° C., 5% CO2), GC-IsoVitaleX agar plate cultures and enumerated spectrophotometrically, as previously described Edwards et al (2000, Infect Immun 68(9):5354-63). Infection studies were performed using a multiplicity of infection of 100 Edwards et al (2000, Infect Immun 68(9):5354-63).
PEX cells were challenged with the noted N. gonorrhoeae strains for 90 min. For single dose survival assays, the infection medium was then removed, cells were rinsed thrice, and fresh medium containing 1% DMSO (vehicle control), carbamazepine ([…], as noted), or ceftriaxone (0.1 μg/mL or 0.5 μg/mL, positive control) was added. Infections were then allowed to proceed for an additional 24 h or 48 h. At the indicated times post-treatment, the infection medium was removed, the PEX cell monolayers were rinsed thrice, lysed, and viable N. gonorrhoeae were enumerated by counting colony forming units after plating serial dilutions of the PEX cell lysates (for example see 12). In some experiments (i.e., two dose survival assays for example see FIG. 13), a second dose of carbamazepine was added at 24 hours-post addition of the first carbamazepine dose. Infections were then allowed to proceed for an additional 24 h before plating the PEX cell lysate, as above. For either assay, the percentage of N. gonorrhoeae that survived carbamazepine or antibiotic treatment was determined as a function of bacteria that survived DMSO (vehicle control) treatment (set to 100%). […] To investigate whether the small percentage of the surviving bacterial cells have developed resistance to the treatment, sequential infection assays were conducted. Bacteria were harvested from the CFU count plates and then used to inoculate a new assay. […] All assays were performed in triplicate on 3 separate occasions with the noted bacterial strains. A Kruskal-Wallis k-sample analysis of variance was used to determine the statistical significance of bacterial survival.
The ability of a single dose of methyldopa was evaluated to inhibit survival of low-passage N. gonorrhoeae isolates in PEX cells challenged with those isolates. To establish infection, PEX cells were challenged with N. gonorrhoeae for 90 min using the noted low-passage isolates. Infections were then allowed to proceed for an additional 24 h or 48 h in the presence or absence of DMSO (1%, vehicle control), methyldopa (10 μM, Md), or ceftriaxone (0.5 μg/mL, positive control, Cfx).

Assay [4] concerns the target T2, human recombinant I-domain (rI-domain) of CD11b (Homo sapiens, UniProt P11215).
T2 construct: made in house
Nature of the assay: Surface plasmon resonance binding to human rI-domain (KD). Particulars: SPR, single cycle kinetics, 25° C., PBS; read-out: KD.

The structures appear in SMILES notation.

T1 sequence (P11215 150-328): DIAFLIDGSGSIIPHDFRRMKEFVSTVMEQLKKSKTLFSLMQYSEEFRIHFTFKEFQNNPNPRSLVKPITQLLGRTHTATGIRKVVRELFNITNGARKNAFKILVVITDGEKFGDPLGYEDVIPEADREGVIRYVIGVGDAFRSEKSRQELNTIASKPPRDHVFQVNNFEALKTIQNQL
T2 sequence (P11215 150-328 limits assumed): as the sequence (P11215 150-328) above

Turning to `NC(=O)N1c2ccccc2C=Cc2ccccc21` [carbamazepine, 5H-dibenzo[b,f]azepine-5-carboxamide], in assay [1] (1:1 competition, 100 nM), the inhibition at 0.1 µM was approximately 99%. In addition, in assay [1] (1:1 competition, 100 nM, 0.1 µM), the “% inhibition” value is 98.97%. Also, the “Block MS11 pilin in SPR” value in assay [1] (direct competition SPR) was “Yes”. For the same compound, the “Drug RU” value in assay [1] (drug alone flowed at 100 nM over immobilized rI-domain) was determined as 4.358 RU. Besides, the “Pilin + Drug RU” value in assay [1] (drug and pilin flowed at 100 nM, 1:1) amounted to 4.675 RU. Further, in assay [2] (1 μM), the “gonococcal adherence to CHO-CR3 cells compared with CHO-neo cells” value is recorded as “not significantly different than that recorded for CHO-neo cells”. Besides, in assay [2], the “gonococcal adherence to CHO-CR3, but not CHO-neo, cells with increasing concentrations” value was “dose-dependent decrease”. In assay [3] (by 24 hours, concentrations of 10 μM or higher), the killing of gonococci entry is “greater than 99.95%”. Moreover, the gonococcal killing entry is “Greater than 99%” in assay [3] (low-passage isolates, 24 h, 10 μM single dose); “Greater than 99%” in assay [3] (multidrug-resistant strains, 24 h, 10 μM single dose); “Greater than 99%” in assay [3] (strain MS11, by 24 h, single 100 nM dose); “greater than 99.95%” in assay [3] (strain MS11, by 48 h, 2 100 nM doses applied 24 h apart); “Greater than 98%” in assay [3] (strain MS11, concentrations greater than or equal to 10 nM, 24 h or 48 h); 100% in assay [3] (strain MS11, sequential infection, following the second infection, 10 μM, 24 h). In addition, the Kd in assay [4] is 2.12 nM.

By inhibition is commonly meant the change of the read-out against control, counted positive when it falls. By % inhibition is commonly meant the percentage by which the read-out fell short of the control. Higher therefore signals strong suppression. The Kd is the concentration at which binding is half-saturated.
